Where “and” joins values, the source holds several entries; their conditions need not be identical. Identical values can stand only once.
How the values were obtained:
[1] = test system: KRAS21R G4; experiment: Spectrofluorimetric titration with KRAS21R G4; type: binding, human; settings: for Apparent association constant Ka (KRAS21R): ligand 1 μM, K-cacodylate pH 7.4, 60 mM K+, 25°C; for Hill constant h (KRAS21R): one-site saturation binding Hill slope model
Description: To characterize the binding of IQc to DNA structures, spectrofluorimetric titration assays were performed with the non-substituted (2a), mono-alkyldiamine (2d) and di-alkyldiamine (3e) derivatives using un-labelled KRAS21R G4 and 26ds-DNA. […] Their fluorescence intensity was proportional to concentration up to 10 μM. […] The fluorescence titration data (Figure 4) was fitted to the Scatchard model[25] (Figure 4, insets). […] Scatchard plots of 2d and 3e (Figure 4b–c, insets) are all concave-down nonlinear curves, which may denote different positive cooperative binding sites in G4, with more than one equivalent and non-independent binding sites. […] Therefore, association constants for 2d and 3e were obtained from the one-site saturation binding Hill slope model (Figure 4b–c). These are apparent binding constants, i.e. they are macroscopic Ka which reflect the total binding.
Figure 4 Fluorescence data of (a) 2a, (b) 2d, and (c) 3e (1 μM) in K-cacodylate buffer (pH 7.4, containing 60 mM K^+) at 25°C, titrated with KRAS21R and HT21 G4s, and 26ds, fitted to the saturation binding equations and Scatchard model (insets).
Fluorescence data were collected with a λex of 290 nm and a λem around 475 nm for 2d and 3e, and a λex of 275 nm and a λem around 460 for 2a. Test compounds were prepared as 1 mM in HPLC-grade water (10% DMSO) stock solutions. The rest of the dilutions were performed using K-cacodylate buffer (pH = 7.4, containing 60 mM K^+). The G4 single-strand oligonucleotide sequences were initially diluted from the storage solution (100 μM) with K-cacodylate, to a stock solution at 25 μM. The titration data were obtained by adding aliquots of previously annealed G4 (heating to 95°C for 10 min, followed by slow cooling to RT) to a solution of the indolo[3,2-c]quinoline ligand (1 μM) in K-cacocylate buffer at 25°C (additional details in Supplementary Information).
Figure S7. Fluorescence titrations of 1 μM indolo[3,2-c]quinoline 2d (1µM) with KRAS21R G4 and 26ds DNA in K-cacodylate buffer pH 7.4, containing 60 mM K+ at 25 °C.
Concentration of DNA increase from the top to the bottom (grey lines) Excitation […]
Figure S8. Fluorescence titrations of 1 μM indolo[3,2-c]quinoline 3e (1µM) with KRAS21R […]
The titration data obtained were used to construct Scatchard plots with the concentration of bound and free ligand (Cb and Cf, respectively). […]
number of moles of ligand bound to 1 mol of G4 (r = Cb/CDNA) were calculated.
Saturation binding isotherms were represented as Scatchard plots, by plotting r/Cf versus r and evaluated according to the model of McGhee and von Hippel. Dissociation constants were determined by fitting the titration experimental data to one-site saturation binding equation or to one-site saturation binding to the Hill slope equation supplied with the GraphPad PRISM software (GraphPad, Version 5.00, San Diego, CA).
Association constants (Ka) were calculated from dissociation constants (Kd). Scatchard lines represented in the Scatchard plots were calculated from the data fitting to the binding equations (x = 0, y = Fmax/Kd; x = Fmax , y = 0; slope = -Ka). […]

[2] = test system: ALT (telomerase negative human lung fibroblast); experiment: SRB short-term cytotoxicity assay, ALT; type: cell-based; settings: 96 h
Description: Short-term anti-proliferative assays were carried out by two different assays using a panel of human cancer and non-malignant human cell lines. […] The transformed human embryonic kidney cell line HEK293T (wt KRAS) was sensitive to all tested drugs, including TMPyP4, a cationic porphyrin established as a G4 ligand, as well as the anticancer drug 5-fluorouracil (5-FU).
Human cell lines, breast carcinoma (MCF7), lung carcinoma (A549), pancreatic cancer (MIA PaCa2, Panc-1), immortalised telomerase-negative human lung fibroblast (ALT) and normal human lung fibroblast (WI-38), were all purchased from American Type Cell Culture (ATCC). Cell lines were maintained in appropriate medium supplemented with 10% fetal bovine serum (Invitrogen, UK), 2 mM L-glutamine (Invitrogen, Netherlands), and other components as specified by the suppliers. All cell lines were maintained at 37°C, 5% CO2, and routinely passaged. Short-term growth inhibition was measured using the SRB assay as described previously[43] (additional details described in Supplementary Information). […]
Sulforhodamine B (SRB) short-term cytotoxicity assay
Cells were seeded at appropriate densities into the wells of 96 well plates in their corresponding medium and incubated overnight to allow the cells to attach. Subsequently cells were exposed to various concentrations of freshly made solutions of drugs and incubated for 96 h. The cells were subsequently fixed with ice-cold trichloacetic acid (TCA) (10%, w/v) for 30 min and stained with 0.4% SRB dissolved in 1% acetic acid for 15 min.
All incubations were carried out at room temperature except for TCA fixation, which was at 4 °C. […]
After electrophoretic transfer onto nitrocellulose membranes, immunoblots were blocked with 5% milk solution, and next incubated overnight at 4 °C with primary mouse monoclonal antibody reactive to KRAS/p53 (#sc-30/sc-126; Santa Cruz Biotechnology Inc., Santa Cruz, CA, USA). […] Steady-state protein levels were expressed as mean ±SEM from at least three independent experiments.

| SMILES | Apparent association constant Ka (KRAS21R) [1] | IC50 [2] [µM] | Hill constant h (KRAS21R) [1] |
| --- | --- | --- | --- |
| Cn1cc2c3ccccc3nc-2c2cc(Br)ccc21 [2a, 2-bromo-5-methyl-indolo[3,2-c]quinoline] | 1.7 × 10^6 M^−1 and 1.7/-- × 10^6 M^−1 | 4.75 |  |
| CCN(CC)CCCNc1ccc2c(c1)c1[nH]c3ccccc3c1c[n+]2C [2d] | 4.4e+06 M⁻¹ | 1.93 | 2.0 |
| CCN(CC)CCCNc1ccc2c(c1)[nH]c1c2c[n+](C)c2ccc(NCCCN(CC)CC)cc12.[Cl-] [3e] | 8.6e+06 M⁻¹ | 7.11 | 2.4 |

— publication PMC5382548 (Scientific Reports, 2015)
